Measured values: patent US9096565B2, “Inhibitors of histone deacetylase” (MethylGene Inc., priority 2007, dated 2015)

Target: one or more of HDAC-4, HDAC-5, HDAC-6, HDAC-7, HDAC-8, HDAC-9, HDAC-10 and HDAC-11
Test: Inhibition of histone deacetylase enzymatic activity (summary statement over isoforms)
Assay type: biochemical
Conditions: Table 3, selected examples; HDAC isoform not given
Protocol: The following protocol is used to assay the compounds of the invention.
The mixture is pre-incubated for 5 minutes at room temperature. The reaction is started by bringing the temperature to 37° C. and adding 15 μL substrate. Total reaction volume is 50 μL.
A 30 mM stock of Boc-Lys(trifluoroacetyl)-AMC substrate is prepared in DMSO. […] Reaction is started by adding 18 μL Boc-Lys(trifluoroacetyl)-AMC substrate and incubating at 37° C. for 20-30 minutes. The reaction is stopped by adding 50 μL trypsin (1 mg/mL) and a known HDAC inhibitor.

SMILES	IC50 [nM]
O=C(NO)C(c1ccccc1)c1ccc(OCc2cccc(OC(F)(F)F)c2)cc1 (stereo not shown) [Compound 3-86, N-hydroxy-2-phenyl-2-(4-(3-(trifluoromethoxy)benzyloxy)phenyl)acetamide]	< 1000
O=C(NO)C(c1ccccc1)c1nnc(-c2ccccc2Oc2ccccc2)s1 (stereo not shown) [Compound 5-52, N-hydroxy-2-(5-(2-phenoxyphenyl)-1,3,4-thiadiazol-2-yl)-2-phenylacetamide]	< 1000
O=C(NO)C(c1ccccc1)c1ccc(N2CCN(c3cccc(C(F)(F)F)c3)CC2)cc1 (stereo not shown) [Compound 5-67, N-hydroxy-2-phenyl-2-(4-(4-(3-(trifluoromethyl)phenyl)piperazin-1-yl)phenyl)acetamide]	< 1000
CCCS(=O)(=O)Nc1ccc(C(C(=O)NO)c2ccccc2)cc1 (stereo not shown) [Compound 2-86, N-hydroxy-2-phenyl-2-(4-(propylsulfonamido)phenyl)acetamide]	< 1000
O=C(NO)C(c1ccc(N2CCOCC2)cc1)c1cccc(C(F)(F)F)c1 (stereo not shown) [Compound 6-21, N-hydroxy-2-(4-morpholinophenyl)-2-(3-(trifluoromethyl)phenyl)acetamide]	1000 to 15000
O=C(NO)C(c1ccccc1)N1CCC(CCc2ccccc2)CC1 (stereo not shown) [Compound 1-31, N-hydroxy-2-(4-phenethylpiperidin-1-yl)-2-phenylacetamide]	< 1000
CCN(Cc1ccccc1)c1ccc(C(C(=O)NO)c2ccccc2)cc1 (stereo not shown) [Compound 5-44, 2-(4-(benzyl(ethyl)amino)phenyl)-N-hydroxy-2-phenylacetamide]	< 1000
O=C(NO)C(c1ccccc1)N1CCC(c2nc(-c3cccnc3)no2)CC1 (stereo not shown) [Compound 2-43, N-hydroxy-2-phenyl-2-(4-(3-(pyridin-3-yl)-1,2,4-oxadiazol-5-yl)piperidin-1-yl)acetamide]	< 1000
O=C(Nc1cccc(C(C(=O)NO)c2ccccc2)c1)c1ccc(F)cc1 (stereo not shown) [Compound 2-62, 4-fluoro-N-(3-(2-(hydroxyamino)-2-oxo-1-phenylethyl)phenyl)benzamide]	< 1000
O=C(Nc1cccc(C(C(=O)NO)c2ccccc2)c1)C1CCCCC1 (stereo not shown) [Compound 2-58, N-(3-(2-(hydroxyamino)-2-oxo-1-phenylethyl)phenyl)cyclohexanecarboxamide]	1000 to 15000
CCN(CC)CC#Cc1ccc(C(C(=O)NO)c2ccccc2)cc1 (stereo not shown) [Compound 5-101, 2-(4-(3-(diethylamino)prop-1-ynyl)phenyl)-N-hydroxy-2-phenylacetamide]	< 1000
O=C(NO)C(c1ccccc1)c1ccc(NCc2ccncc2)cc1 (stereo not shown) [Compound 2-80, N-hydroxy-2-phenyl-2-(4-(pyridin-4-ylmethylamino)phenyl)acetamide]	< 1000
CN(C)c1ccc(-c2ccc(C(C(=O)NO)c3ccccc3)cc2)cn1 (stereo not shown) [Compound 5-58, 2-(4-(6-(dimethylamino)pyridin-3-yl)phenyl)-N-hydroxy-2-phenylacetamide]	< 1000
CN(C)CCN1CCN(c2ccc(C(C(=O)NO)c3ccccc3)cc2)CC1 (stereo not shown) [Compound 5-94, 2-(4-(4-(2-(dimethylamino)ethyl)piperazin-1-yl)phenyl)-N-hydroxy-2-phenylacetamide]	< 1000
O=C(NO)C(c1ccccc1)N1CC=C(c2c[nH]c3ccccc23)CC1 (stereo not shown) [Compound 5-7, 2-(4-(1H-indol-3-yl)-5,6-dihydropyridin-1(2H)-yl)-N-hydroxy-2-phenylacetamide]	< 1000
O=C(NO)C(c1ccccc1)c1ccc(N2C[C@@H]3C[C@H]2CO3)cc1 (stereo partly drawn) [Compound 5-78, 2-(4-((1S,4S)-2-oxa-5-azabicyclo[2.2.1]heptan-5-yl)phenyl)-N-hydroxy-2-phenylacetamide]	< 1000
O=C(NO)C(c1ccccc1)c1cccc(N2CCC(N3CCCC3)CC2)c1 (stereo not shown) [Compound 3-76, N-hydroxy-2-phenyl-2-(3-(4-(pyrrolidin-1-yl)piperidin-1-yl)phenyl)acetamide]	< 1000
O=C(NO)C(c1ccccc1)c1ccc(N2C[C@@H]3C[C@]3(c3ccc(Cl)c(Cl)c3)C2)cc1 (stereo partly drawn) [Compound 6-16, 2-(4-((1S,5R)-1-(3,4-dichlorophenyl)-3-azabicyclo[3.1.0]hexan-3-yl)phenyl)-N-hydroxy-2-phenylacetamide]	< 1000
O=C(NO)C(Sc1ccccc1)c1ccc(-c2ccncc2)cc1 (stereo not shown) [Compound 5-116, N-hydroxy-2-(phenylthio)-2-(4-(pyridin-4-yl)phenyl)acetamide]	< 1000
C=CCOc1cccc(C(C(=O)NO)c2ccccc2)c1 (stereo not shown) [Compound 3-24, 2-(3-(allyloxy)phenyl)-N-hydroxy-2-phenylacetamide]	1000 to 15000
O=C(NO)C(c1ccccc1)c1ccc(OCCOCc2ccccc2)cc1 (stereo not shown) [Compound 3-68, 2-(4-(2-(benzyloxy)ethoxy)phenyl)-N-hydroxy-2-phenylacetamide]	< 1000
O=C(NO)C(c1ccccc1)N1CCC(Cc2ccc(F)cc2)CC1 (stereo not shown) [Compound 1-30, 2-(4-(4-fluorobenzyl)piperidin-1-yl)-N-hydroxy-2-phenylacetamide]	< 1000
CN(C)CCCOc1cccc(C(C(=O)NO)c2ccccc2)c1 (stereo not shown) [Compound 3-15, 2-(3-(3-(dimethylamino)propoxy)phenyl)-N-hydroxy-2-phenylacetamide]	< 1000

SMILES	IC50 [nM]
CC(C)=CCOc1cccc(C(C(=O)NO)c2ccccc2)c1 (stereo not shown) [Compound 3-5, N-hydroxy-2-(3-(3-methylbut-2-enyloxy)phenyl)-2-phenylacetamide]	< 1000
O=C(NO)C(c1ccccc1)c1cccc(Nc2ccccc2)c1 (stereo not shown) [Compound 3-73, N-hydroxy-2-phenyl-2-(3-(phenylamino)phenyl)acetamide]	1000 to 15000
O=C(Nc1cccc(C(C(=O)NO)c2ccccc2)c1)c1cccc(Cl)c1 (stereo not shown) [Compound 2-73, 3-chloro-N-(3-(2-(hydroxyamino)-2-oxo-1-phenylethyl)phenyl)benzamide]	1000 to 15000
O=C(NO)C(c1ccccc1)c1ccc(Nc2ccccc2)cc1 (stereo not shown) [Compound 3-80, N-hydroxy-2-phenyl-2-(4-(phenylamino)phenyl)acetamide]	< 1000
CCCOc1ccc(OC(C(=O)NO)c2ccccc2)cc1 (stereo not shown) [Compound 7-41, N-hydroxy-2-phenyl-2-(4-propoxyphenoxy)acetamide]	1000 to 15000
O=C(NO)C(c1ccccc1)c1ccc(N2CCCCC2=O)cc1 (stereo not shown) [Compound 5-110, N-hydroxy-2-(4-(2-oxopiperidin-1-yl)phenyl)-2-phenylacetamide]	< 1000
CCSc1ccc(-c2cccc(C(C(=O)NO)c3ccccc3)c2)cc1 (stereo not shown) [Compound 2-107, 2-(4′-(ethylthio)biphenyl-3-yl)-N-hydroxy-2-phenylacetamide]	< 1000
COc1ccc2sc(SC(C(=O)NO)c3ccccc3)nc2c1 (stereo not shown) [Compound 5-50, N-hydroxy-2-(5-methoxybenzo[d]thiazol-2-ylthio)-2-phenylacetamide]	< 1000
CC(C)=CCOc1ccc(C(C(=O)NO)c2ccccc2)cc1 (stereo not shown) [Compound 3-52, N-hydroxy-2-(4-(3-methylbut-2-enyloxy)phenyl)-2-phenylacetamide]	< 1000
O=C(NO)C(c1ccccc1)c1cccc(OCc2cccc(Cl)c2)c1 (stereo not shown) [Compound 3-10, 2-(3-(3-chlorobenzyloxy)phenyl)-N-hydroxy-2-phenylacetamide]	< 1000
O=C(NO)C(Sc1nccc(-c2cccs2)n1)c1ccccc1 (stereo not shown) [Compound 2-48, N-hydroxy-2-phenyl-2-(4-(thiophen-2-yl)pyrimidin-2-ylthio)acetamide]	1000 to 15000
O=C(NO)C(c1ccccc1)c1ccc(N2CCN(C3CCCC3)CC2)cc1 (stereo not shown) [Compound 5-77, 2-(4-(4-cyclopentylpiperazin-1-yl)phenyl)-N-hydroxy-2-phenylacetamide]	< 1000
O=C(NO)C(c1ccc(N2CCOCC2)cc1)c1cccc(F)c1 (stereo not shown) [Compound 5-118, 2-(3-fluorophenyl)-N-hydroxy-2-(4-morpholinophenyl)acetamide]	< 1000
O=C(NO)C(c1ccccc1)c1ccc(OCCc2ccccc2)cc1 (stereo not shown) [Compound 2-12, N-hydroxy-2-(4-phenethoxyphenyl)-2-phenylacetamide]	< 1000
O=C(NO)C(Sc1nc2cc(Cl)ccc2s1)c1ccccc1 (stereo not shown) [Compound 5-59, 2-(5-chlorobenzo[d]thiazol-2-ylthio)-N-hydroxy-2-phenylacetamide]	< 1000
O=C(NO)C(c1ccccc1)c1ccc(OCC(=O)N2CCOCC2)cc1 (stereo not shown) [Compound 2-11, N-hydroxy-2-(4-(2-morpholino-2-oxoethoxy)phenyl)-2-phenylacetamide]	< 1000
CCN(CC)c1ccc(C(C(=O)NO)c2ccc3c(c2)CCO3)cc1 (stereo not shown) [Compound 5-82, 2-(4-(diethylamino)phenyl)-2-(2,3-dihydrobenzofuran-5-yl)-N-hydroxyacetamide]	< 1000
O=C(NO)C(c1ccccc1)n1cccc1 (stereo not shown) [Compound 1-13, N-hydroxy-2-phenyl-2-(1H-pyrrol-1-yl)acetamide]	1000 to 15000
O=C(NO)C(c1ccccc1)N1CCCCC1 (stereo not shown) [Compound 1-4, N-hydroxy-2-phenyl-2-(piperidin-1-yl)acetamide]	< 1000
O=C(NO)C(c1ccccc1)n1cc(CCc2ccccc2)nn1 (stereo not shown) [Compound 1-27, N-hydroxy-2-(4-phenethyl-1H-1,2,3-triazol-1-yl)-2-phenylacetamide]	1000 to 15000
COc1ccc(S(=O)(=O)Nc2cccc(C(C(=O)NO)c3ccccc3)c2)cc1 (stereo not shown) [Compound 2-91, N-hydroxy-2-(3-(4-methoxyphenylsulfonamido)phenyl)-2-phenylacetamide]	1000 to 15000
O=C(NO)C(Oc1ccc(F)cc1Cl)c1ccccc1 (stereo not shown) [Compound 7-33, 2-(2-chloro-4-fluorophenoxy)-N-hydroxy-2-phenylacetamide]	1000 to 15000
O=C(NO)C(c1ccc(N2CCOCC2)cc1)c1cccc2ccccc12 (stereo not shown) [Compound 5-122, N-hydroxy-2-(4-morpholinophenyl)-2-(naphthalen-1-yl)acetamide]	< 1000
